In paper PMC7377239, “Cardiovascular Effects of Polychlorinated Biphenyls and Their Major Metabolites” (Environmental Health Perspectives, 2020):
Counter-ions that a name gives are not always drawn. Like-named read-outs stand apart in the source and are kept apart here.

Key:
[1] = test system: HUVECs; assay: Tube formation (tubulogenesis) assay in HUVECs, 18 h; assay type: cell-based, human; settings: Homo sapiens, HUVEC, 18 h; for activity at 0.1 µM: 0.10 µM
How it was run: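 HUVECs (passage 1–5) seeded on reduced-growth-factor basement membrane and exposed to compounds overnight at 37°C, 5% CO2, in 2× maintenance medium with 12.5 ng/mL VEGF; 0.5% DMSO vehicle. Calcein AM-stained tube networks imaged and analysed; vehicle-normalized readouts fit to four-parameter logistic, POD set at one SD of vehicle means.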

[2] = test system: HUVECs; assay: High-content imaging cytotoxicity in HUVECs, 24 h; assay type: cell-based, human; settings: Homo sapiens, HUVEC, 24 h; for viability at 0.01 µM / activity at 0.01 µM / viability at 0.1 µM / activity at 0.1 µM / viability at 1 µM / activity at 1 µM / viability at 10 µM / activity at 10 µM / viability at 100 µM / activity at 100 µM: 0.00 µM = 100.00; for viability at 0.1 µM / activity at 0.1 µM: 0.10 µM
How it was run: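 Point-of-departure values derive from four-parameter logistic fits of vehicle-normalized imaging phenotypes (Hoechst 33342, MitoTracker Orange, calcein AM). The fits follow 24 h exposure of HUVEC monolayers at 37°C and 5% CO2, with a top tested concentration of 100μM.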

[3] = HUVECs, 0.00 µM = 100.00, read-out: huvec.mtl.18hr
[4] = HUVECs, 0.00 µM = 100.00, read-out: huvec.tlps.18hr
[5] = HUVECs, 0.00 µM = 100.00, read-out: huvec.tta.18hr
[6] = HUVECs, 0.00 µM = 100.00, read-out: huvec.ttl.18hr
[7] = HUVECs, 24 hr, read-out: huvec.cyto.24hr
[8] = HUVECs, 24 hr, read-out: huvec.mito.24hr
[9] = HUVECs, 24 hr, read-out: huvec.mitoint.24hr
[10] = HUVECs, 24 hr, read-out: huvec.nma.24hr
[11] = HUVECs, 24 hrs, read-out: huvec.tc.24hrs

**Q.** Which activity at 0.01 µM [1, 3] does the source give for `O=S(=O)(O)Oc1cc(Cl)c(-c2cc(Cl)ccc2Cl)cc1Cl` [4-yl PCB 52 sulfate] here?
**A.** 91.2%

**Q.** And the activity at 0.01 µM [1, 4]?
**A.** 86.7%

**Q.** And the activity at 0.01 µM [1, 5]?
**A.** 66.3%

**Q.** And the activity at 0.01 µM [1, 6]?
**A.** 59.7%

**Q.** What about the activity at 0.1 µM [1, 3] of the same molecule?
**A.** 103%

**Q.** What about the activity at 0.1 µM [1, 4] of the same molecule?
**A.** 108%

**Q.** What about the activity at 0.1 µM [1, 5] of the same molecule?
**A.** 99.9%

**Q.** What about the activity at 0.1 µM [1, 6] of the same molecule?
**A.** 89.7%

**Q.** And the activity at 1 µM [1, 3]?
**A.** 99%

**Q.** What about the activity at 1 µM [1, 4] of the same molecule?
**A.** 111%

**Q.** And the activity at 1 µM [1, 5]?
**A.** 97.7%

**Q.** What about the activity at 1 µM [1, 6] of the same molecule?
**A.** 87.2%

**Q.** What about the activity at 10 µM [1, 3] of the same molecule?
**A.** 93.2%

**Q.** What about the activity at 10 µM [1, 4] of the same molecule?
**A.** 84.7%

**Q.** And the activity at 10 µM [1, 5]?
**A.** 79.1%

**Q.** And the activity at 10 µM [1, 6]?
**A.** 70.9%

**Q.** What about the activity at 100 µM [1, 3] of the same molecule?
**A.** 61.8%

**Q.** What about the activity at 100 µM [1, 4] of the same molecule?
**A.** 26.3%

**Q.** And the activity at 100 µM [1, 5]?
**A.** 85.2%

**Q.** What about the activity at 100 µM [1, 6] of the same molecule?
**A.** 94.3%

**Q.** What about the minimal effective concentration ([1]; HUVECs, top concentration 100.00 µM, read-out: huvec.mtl.18hr POD) of the same molecule?
**A.** 14.6 µM

**Q.** What about the minimal effective concentration ([1]; HUVECs, top concentration 100.00 µM, read-out: huvec.tlps.18hr POD) of the same molecule?
**A.** 10.1 µM

**Q.** What about the minimal effective concentration ([1]; HUVECs, top concentration 100.00 µM, read-out: huvec.tta.18hr POD) of the same molecule?
**A.** 100 µM

**Q.** What about the minimal effective concentration ([1]; HUVECs, top concentration 100.00 µM, read-out: huvec.ttl.18hr POD) of the same molecule?
**A.** 100 µM

**Q.** What about the viability at 0.01 µM [2, 7] of the same molecule?
**A.** 99.3%

**Q.** What about the activity at 0.01 µM [2, 8] of the same molecule?
**A.** 98.2%

**Q.** And the activity at 0.01 µM [2, 9]?
**A.** 110%

**Q.** And the activity at 0.01 µM [2, 10]?
**A.** 98.4%

**Q.** What about the viability at 0.1 µM [2, 7] of the same molecule?
**A.** 105%

**Q.** What about the activity at 0.1 µM [2, 8] of the same molecule?
**A.** 105%

**Q.** And the activity at 0.1 µM [2, 9]?
**A.** 113%

**Q.** What about the activity at 0.1 µM [2, 10] of the same molecule?
**A.** 96.2%

**Q.** And the viability at 1 µM [2, 7]?
**A.** 93.5%

**Q.** What about the activity at 1 µM [2, 8] of the same molecule?
**A.** 92.9%

**Q.** And the activity at 1 µM [2, 9]?
**A.** 107%

**Q.** And the activity at 1 µM [2, 10]?
**A.** 99.1%

**Q.** And the viability at 10 µM [2, 7]?
**A.** 91.2%

**Q.** And the activity at 10 µM [2, 8]?
**A.** 89.3%

**Q.** And the activity at 10 µM [2, 9]?
**A.** 111%

**Q.** And the activity at 10 µM [2, 10]?
**A.** 98.4%

**Q.** And the viability at 100 µM [2, 7]?
**A.** 59.6%

**Q.** And the activity at 100 µM [2, 8]?
**A.** 61.8%

**Q.** What about the activity at 100 µM [2, 9] of the same molecule?
**A.** 74.7%

**Q.** And the activity at 100 µM [2, 10]?
**A.** 206%

**Q.** What about the minimal effective concentration ([2]; HUVECs, 24 hr, top concentration 100.00 µM, read-out: huvec.cyto.24hr POD) of the same molecule?
**A.** 5.38 µM

**Q.** And the minimal effective concentration ([2]; HUVECs, 24 hr, top concentration 100.00 µM, read-out: huvec.mito.24hr POD)?
**A.** 3.31 µM

**Q.** What about the minimal effective concentration ([2]; HUVECs, 24 hr, top concentration 100.00 µM, read-out: huvec.mitoint.24hr POD) of the same molecule?
**A.** 61.2 µM

**Q.** What about the minimal effective concentration ([2]; HUVECs, 24 hr, top concentration 100.00 µM, read-out: huvec.nma.24hr POD) of the same molecule?
**A.** 33.9 µM

**Q.** And the viability at 0.01 µM [2, 11]?
**A.** 99.3%

**Q.** What about the viability at 0.1 µM [2, 11] of the same molecule?
**A.** 105%

**Q.** And the viability at 1 µM [2, 11]?
**A.** 93.5%

**Q.** And the viability at 10 µM [2, 11]?
**A.** 91.2%

**Q.** And the viability at 100 µM [2, 11]?
**A.** 61.8%

**Q.** And the minimal effective concentration ([2]; HUVECs, 24 hrs, top concentration 100.00 µM, read-out: huvec.tc.24hrs POD)?
**A.** 5.38 µM

**Q.** How did the minimal effective concentration ([1]; tube formation mtl, read-out: POD huvec.mtl.18hr) turn out when `O=S(=O)(O)Oc1cc(-c2ccccc2)ccc1Cl` [3-PCB 3 sulfate] was run?
**A.** 11.5 µM

**Q.** What about the minimal effective concentration ([1]; tube formation tlps, read-out: POD huvec.tlps.18hr) of the same molecule?
**A.** 65.8 µM

**Q.** And the minimal effective concentration ([1]; tube formation tta, read-out: POD huvec.tta.18hr)?
**A.** 100 µM

**Q.** And the minimal effective concentration ([1]; tube formation ttl, read-out: POD huvec.ttl.18hr)?
**A.** 52.1 µM

**Q.** What about the minimal effective concentration ([2]; cyto, 24 hr, read-out: POD huvec.cyto.24hr) of the same molecule?
**A.** 100 µM

**Q.** What about the minimal effective concentration ([2]; mito, 24 hr, read-out: POD huvec.mito.24hr) of the same molecule?
**A.** 100 µM

**Q.** What about the minimal effective concentration ([2]; mitoint, 24 hr, read-out: POD huvec.mitoint.24hr) of the same molecule?
**A.** 100 µM

**Q.** What about the minimal effective concentration ([2]; nma, 24 hr, read-out: POD huvec.nma.24hr) of the same molecule?
**A.** 100 µM

**Q.** And the minimal effective concentration ([2]; tc, 24 hr, read-out: POD huvec.tc.24hr)?
**A.** 100 µM
